Reference: article PMC8073686, “Characterization of Subtype Selective Cannabinoid CB2 Receptor Agonists as Potential Anti-Inflammatory Agents” (Pharmaceuticals, 2021)

Key:
[1] = tested on: TNF-α production in Jurkat cells; assay: PHA/PMA-induced TNF-α production in Jurkat cells (ELISA of culture medium); format: cell-based, human; conditions: 10 μM, 24 h
Protocol: Activation of CB2 is known to have anti-inflammatory effects. There are some studies reporting that CB2 agonists decrease cytokine production in immune cells. We also reported that the cannabinoid receptor agonist CP55,940 and ABK5 inhibit cytokine production in the human T cell lines Jurkat and MOLT-4 [24]. Since ABK5-1 and 5-2 were confirmed to be CB2-subtype selective agonists, we were interested to determine whether these compounds also have anti-inflammatory effects. Note, although ABK5-6 had marginally better binding affinity to CB2, it bound to CB1 very, very weakly (i.e., micromolar range). Therefore ABK5-6 was not selected for further evaluations. […] To test if these mRNA changes are reflected in the protein levels of cytokines, the IL-2 and TNF-α concentration in the cell culture medium were measured by ELISA. […]
Figure 4 Effect of ABK5-1 and ABK5-2 on phytohemagglutinin (PHA)/phorbol 12-myristate 13-acetate (PMA)-induced cytokine production in T cells. […] IL-2 and TNF-α mRNA levels were determined by real-time PCR (RT-PCR) after ABK5-1 treatment and (A) 3 h and (B) 24 h of PHA/PMA (phytohemagglutinin/phorbol 12-myristate 13-acetate) stimulation. […] IL-2 and TNF-α mRNA were also examined after ABK5-2 treatment and (E) 3 h and (F) 24 h of stimulation, and protein levels of (G) IL-2 and (H) TNF-α were measured after 24 h stimulation. […]

[2] = tested on: TNF-α mRNA in Jurkat cells; assay: PHA/PMA-induced TNF-α mRNA in Jurkat cells (RT-PCR); format: cell-based, human; conditions: 10 μM
Protocol: (§1) Activation of CB2 is known to have anti-inflammatory effects. There are some studies reporting that CB2 agonists decrease cytokine production in immune cells. We also reported that the cannabinoid receptor agonist CP55,940 and ABK5 inhibit cytokine production in the human T cell lines Jurkat and MOLT-4 [24]. Since ABK5-1 and 5-2 were confirmed to be CB2-subtype selective agonists, we were interested to determine whether these compounds also have anti-inflammatory effects. Note, although ABK5-6 had marginally better binding affinity to CB2, it bound to CB1 […] (i.e., micromolar range). Therefore ABK5-6 was not selected for further evaluations. We first tested the change of IL-2 and TNF-α mRNA levels in Jurkat cells. […] To test if these mRNA changes are reflected in the protein levels of cytokines, the IL-2 and TNF-α concentration in the cell culture medium were measured by ELISA. […] Unlike ABK5-1, at 3 h of treatment, the lowest concentration of ABK5-2 used caused the IL-2 mRNA decrease. […] On the other hand, TNF-α mRNA decreased by 45% at 10 μM ABK5-2 after 3 h of treatment (Figure 4E, black columns). […] These mRNA level changes were similar to that of ABK5-1, except ABK5-2 caused a stronger inhibitory effect on expression of TNF-α mRNA. […] Consistent with the mRNA levels, the inhibitory effect of ABK5-2 on TNF-α production was stronger than that of ABK5-1.
Figure 4 Effect of ABK5-1 and ABK5-2 on phytohemagglutinin (PHA)/phorbol 12-myristate 13-acetate (PMA)-induced cytokine production in T cells. Jurkat cells were pretreated with DMSO (<0.1%; indicated as 0 μM) or various concentrations of ABK5-1 (A–D) or ABK5-2 (E–H) and stimulated with PHA and PMA. IL-2 and TNF-α mRNA levels were determined by real-time PCR (RT-PCR) after ABK5-1 treatment and (A) 3 h and (B) 24 h of PHA/PMA (phytohemagglutinin/phorbol 12-myristate 13-acetate) stimulation. Protein levels of (C) IL-2 and (D) TNF-α were also examined after 24 h of stimulation. IL-2 and TNF-α mRNA were also examined after ABK5-2 treatment and (E) 3 h and (F) 24 h of stimulation, and protein levels of (G) IL-2 and (H) TNF-α were measured after 24 h stimulation. […]
(§2) Jurkat cells were lysed and total RNA was extracted using TRIzol Reagent (Life Technologies, Carlsbad, CA, USA) followed by reverse transcription by a High-Capacity cDNA Reverse Transcription kit (Life Technologies, Carlsbad, CA, USA) according to the manufacturer’s instructions. Quantitative real-time PCR was performed using an Applied Biosystems 7500 Fast Real-Time PCR system in a 10 μL reaction volume containing 2 μL diluted cDNA and 0.5 μM each of forward and reverse primers, and PowerUp SYBR Green Master Mix (Life Technologies, Carlsbad, CA, USA). […]

[3] = tested on: IL-2 mRNA in Jurkat cells; assay: PHA/PMA-induced IL-2 mRNA in Jurkat cells (RT-PCR); format: cell-based, human
Protocol: as §1
Figure 4 Effect of ABK5-1 and ABK5-2 on phytohemagglutinin (PHA)/phorbol 12-myristate 13-acetate (PMA)-induced cytokine production in T cells. Jurkat cells were pretreated with DMSO (<0.1%; indicated as 0 μM) or various concentrations of ABK5-1 (A–D) or ABK5-2 (E–H) and stimulated with PHA and PMA. IL-2 and TNF-α mRNA levels were determined by real-time PCR (RT-PCR) after ABK5-1 treatment and (A) 3 h and (B) 24 h of PHA/PMA (phytohemagglutinin/phorbol 12-myristate 13-acetate) stimulation. Protein levels of (C) IL-2 and (D) TNF-α were also examined after 24 h of stimulation. IL-2 and TNF-α mRNA were also examined after ABK5-2 treatment and (E) 3 h and (F) 24 h of stimulation, and protein levels of (G) IL-2 and (H) TNF-α were measured after 24 h stimulation. Results are indicated as the mean ± S.D. of three independent assays performed in triplicate for each concentration. One-way ANOVA and Dunnett’s post-hoc test were used and * p < 0.05, ** p < 0.01, *** p < 0.005, **** p < 0.0001 (versus reference).
For cytokine analysis, 0.75 × 10^6 Jurkat cells per well were seeded in 12-well cell culture plates and treated with compounds at a concentration between 0.1 to 10 μM and incubated for 30 min at 37 °C. Then cells were stimulated for cytokine production with PHA (1 μg/mL) and PMA (12.5 ng/mL), for 3 and 24 h. After stimulation, cells were harvested for RNA analysis and the culture supernatant was used for measurement of IL-2 and TNF-α concentrations by human IL-2 and TNF-α ELISA kits (Thermo Fisher Scientific; Waltham, MA, USA) according to the manufacturer instructions.
as §2, with “USA). Primers used in the reaction were as follows: human 36B4 forward, 5′-[…]-3′, and human 36B4 reverse, 5′-[…]-3′, and human IL-2 forward, 5′-[…]-3′, and human IL-2 reverse, 5′-[…]-3′, and human TNF-α forward, 5′-[…]′, human TNF-α reverse, 5′-[…]-3′. The PCR cycles are as follows: 50 °C for 2 min, 95 °C for 2 min, 40 cycles of 95 °C for 3 sec and 60 °C for 30 s.” for “USA).”

[4] = tested on: IL-6 production in BV-2 cells; assay: LPS-induced IL-6 protein in BV-2 culture medium; format: cell-based, murine; conditions: 10 μM, 24 h LPS stimulation
Protocol: (§3) We stimulated BV-2 by lipopolysaccharide (LPS) and confirmed induction of pro-inflammatory cytokine IL-1β and IL-6 (data not shown). […] These effects were also confirmed by cytokine protein levels.
(§4) Figure 6 Effect of ABK5-1 on lipopolysaccharide (LPS)-induced cytokine production in microglia. BV-2 cells were pretreated with DMSO (<0.1%) or 1 or 10 μM ABK5-1 and stimulated with LPS. (A) mRNA levels of IL-1β and IL-6 after 6 h of LPS stimulation. (B) IL-1β protein concentration in the cell culture medium after 24 h of LPS stimulation. U.D. indicates under detection limit. (C) IL-6 protein concentration in the cell culture medium after 24 h of LPS stimulation. (D) Viability of BV-2 cells after ABK5-1 10 μM treatment. Results are indicated as the mean ± S.D. of three independent assays performed for each concentration. One-way ANOVA plus Dunnett’s post-hoc test were used and **** p < 0.0001 (versus reference). TEXT PRINTED IN THE PICTURE: (B) ABK5-1: IL-1β (pg/mL): U.D. (10 μM; LPS +)

[5] = tested on: IL-1β production in BV-2 cells; assay: LPS-induced IL-1β protein in BV-2 culture medium; format: cell-based, murine; conditions: 10 μM
Protocol: as §3, §4

IL-1β mRNA in BV-2 cells = assay: LPS-induced IL-1β mRNA in BV-2 cells; format: cell-based, murine; conditions: 10 μM, 6 h LPS stimulation
Protocol: as §3, §4

IL-6 mRNA in BV-2 cells = assay: LPS-induced IL-6 mRNA in BV-2 cells; format: cell-based, murine; conditions: 10 μM, 6 h LPS stimulation
Protocol: as §3, §4

[6] = 0.1 μM, 3 h PHA/PMA stimulation

Compound | decrease of TNF-α production (protein, ELISA) [1] [%] | decrease of TNF-α mRNA ([2]; 3 h PHA/PMA stimulation) [%] | decrease of TNF-α mRNA ([2]; 24 h) | decrease of IL-2 mRNA [3, 6] | decrease of IL-2 mRNA ([3]; 1 μM, 3 h PHA/PMA stimulation) | decrease of IL-2 mRNA ([3]; 10 μM, 3 h PHA/PMA stimulation) [%] | decrease of IL-2 mRNA ([3]; 10 μM, 24 h) | decrease of IL-6 cytokine concentration in the culture medium [4] [%] | IL-1β cytokine concentration in the culture medium (in words) ([5]; 24 h LPS stimulation) | IL-1β ([5]; LPS +, 24 h, U.D. = under detection limit) | decrease of IL-1β mRNA (IL-1β mRNA in BV-2 cells) [%] | decrease of IL-2 mRNA ([3]; 1 μM, 24 h) | decrease of IL-6 mRNA (IL-6 mRNA in BV-2 cells) [%]
CCOC(=O)c1ccccc1NC(=O)CN(c1c(C)cccc1C)S(=O)(=O)c1ccccc1 [ABK5-2] | ~43 | 45 | about 60% | about 20% | ~15% | ~46 | about 65% |  |  |  |  |  | 
CCOC(=O)c1ccccc1NC(=O)CN(c1ccc(C)cc1C)S(=O)(=O)c1ccccc1 [ABK5-1] | ~37 | 35 | 50% | did not show a significant decrease | about 17% | ~46 | ~67% | 47 | under the detection limit | U.D. | 63 | about 14% | 48
